The values that follow come from patent publication US9580418B2, “Bicyclic aromatic carboxamide compounds useful as Pim kinase inhibitors” (Incyte Corporation, priority 2014, dated 2017).

One test concerns the target Pim-1 (Homo sapiens (Human), UniProt P11309). Put plainly: Pim-1 kinase assay (Pim enzyme assays, Example A). Particulars: 1 mM ATP, BAD peptide substrate; read-out: PIM1 IC50. In kind it is biochemical. The procedure:
(§1) Pim-1 and Pim-3 kinase assays-20 μL reactions were run in white 384 well polystyrene plates dotted with 0.8 μL compound/DMSO in the assay buffer (50 mM Tris, pH 7.5, 0.01% Tween-20, 5 mM mgCl2, 0.01% BSA, 5 mM DTT), containing 0.05 μM Biotin-labeled BAD peptide substrate (AnaSpec 62269), 1 mM ATP, and 2.5 pM (Pim-1, Invitrogen PV3503) or 1.25 pM (Pim-3, Millipore 14-738) enzyme for 1 h at 25° C. Reactions were stopped by addition of 10 μL STOP Buffer (150 mM Tris, pH=7.5, 150 mM NaCl, 75 mM EDTA, 0.01% Tween-20, 0.3% BSA,) supplemented with Phospho-Bad (Ser112) Antibody (Cell Signaling 9291) diluted 666-fold, and Streptavidin donor beads (PerkinElmer 6760002) along with Protein-A acceptor beads (PerkinElmer 6760137) at 15 μg/mL each. Supplementation of the STOP buffer with beads and stopping the reactions were done under reduced light. Prior to the stopping reactions STOP buffer with beads was preincubated for 1 h in the dark at room temperature. After stopping the reactions, plates were incubated for 1 h in the dark at room temperature before reading on a PHERAstar FS plate reader (BMG Labtech) under reduced light.

The next test has as its system pBAD in KMS.12.BM cells. Put plainly: Pim pBAD signaling assay in KMS.12.BM cells (Example B). In kind it is cell-based. Particulars: Homo sapiens, 2.5 h incubation, pBAD ELISA. The procedure: KG-1A cells are purchased from ATCC (Manassas, Va.) and KMS.12.BM cells are purchased from NIBIO, JCRB cell bank (Tokyo, Japan) and maintained in the culture mediums recommended, RPMI, 10% FBS and IMDM 20% FBS (Mediatech, Manassas, Va.) respectively. To measure the pBAD inhibitory activity of the compounds, both cell lines are plated with the culture medium (1×10^6/well/100 μL for KG1A and 4×10^5 cells/well/in 100 μL for KMS12BM) into 96-well V bottom polypropylene plates (Matrix, Thermo Fisher, USA) and incubated 30 min. at 37° C. to normalize cell signaling from handling. Test compounds are added at an appropriate concentration range and further incubated for 2.5 h for KMS.12.BM cells and 4 h for KG1-A cells. Plates are centrifuged at 2000 RPM for 10 min. and supernatants aspirated. 100 μL lysis buffer with protease inhibitors (Cell Signaling Technologies, Danver, Mass., Sigma, St Louis Mo., EMD, USA) is added to the pellets, mixed well and set on ice for 30 min. Lysates are frozen overnight at −80° C. To measure the pBAD activity, a Cell Signaling ELISA kit (Cell Signaling Path Scan phosphor pBAD ELISA) is utilized. 50 μL of the lysate is tested per the ELISA protocol and the data analysis is performed by software on a SpectrMax5 plate reader (Molecular Devices, Sunnyvale, Calif.). IC50 determination is performed by fitting the curve of percent inhibition versus the log of the inhibitor concentration using the GraphPad Prism 5.0 software.

Another test has as its target Pim-2 (Homo sapiens (Human), UniProt Q9P1W9). Put plainly: Pim-2 kinase assay (Pim enzyme assays, Example A). In kind it is biochemical. The conditions noted are these: 1 mM ATP, CREBtide peptide substrate; read-out: PIM2 IC50. The procedure: Pim-2 kinase assay-20 μL reactions were run in white 384 well polystyrene plates dotted with 0.8 μL compound/DMSO in the assay buffer (50 mM Tris, pH 7.5, 0.01% Tween-20, 5 mM mgCl2, 0.01% BSA, 5 mM DTT), containing 0.05 μM Fluorescein-labeled CREBtide peptide substrate (Invitrogen PV3508), 1 mM ATP, and 1 nM enzyme (Invitrogen PV3649) for 2 h at 25° C. Reactions were stopped by addition of 10 μL TR-FRET Dilution Buffer (Invitrogen PV3574) with 30 mM EDTA and 1.5 nM LanthaScreen Tb-CREB pSer133 antibody (Invitrogen PV3566). After 30 min. incubation at room temperature, plates were read on a PHERAstar FS plate reader (BMG Labtech).

The target in another test is Pim-3 (Homo sapiens (Human), UniProt Q86V86). Put plainly: Pim-3 kinase assay (Pim enzyme assays, Example A). In kind it is biochemical. The conditions noted are these: 1 mM ATP, BAD peptide substrate; read-out: PIM3 IC50. The procedure: as §1

Bounds are passed on as bounds.

Pim-2, sequence (Q9P1W9 whole entry): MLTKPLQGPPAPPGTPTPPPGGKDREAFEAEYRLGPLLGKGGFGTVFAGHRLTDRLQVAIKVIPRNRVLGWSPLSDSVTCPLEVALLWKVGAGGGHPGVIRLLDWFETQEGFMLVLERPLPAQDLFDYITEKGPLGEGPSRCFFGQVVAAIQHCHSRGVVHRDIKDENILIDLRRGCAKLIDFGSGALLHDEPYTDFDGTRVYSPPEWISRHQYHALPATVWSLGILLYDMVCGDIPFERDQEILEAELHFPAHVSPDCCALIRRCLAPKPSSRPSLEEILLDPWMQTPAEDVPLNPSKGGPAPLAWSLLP
Pim-1, sequence (P11309 whole entry): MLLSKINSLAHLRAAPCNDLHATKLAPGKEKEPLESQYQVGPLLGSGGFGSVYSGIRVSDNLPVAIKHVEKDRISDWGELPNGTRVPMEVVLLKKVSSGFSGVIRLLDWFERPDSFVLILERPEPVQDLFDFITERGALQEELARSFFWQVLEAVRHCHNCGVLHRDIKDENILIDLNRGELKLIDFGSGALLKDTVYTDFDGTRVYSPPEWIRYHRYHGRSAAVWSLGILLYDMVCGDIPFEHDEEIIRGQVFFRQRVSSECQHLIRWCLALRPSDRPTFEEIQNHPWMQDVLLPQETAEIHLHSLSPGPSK

Broadly, the IC50 is the concentration that gives 50% inhibition. With `C[C@@H]1C[C@H](N)CN(c2ccncc2NC(=O)c2ccc3ccc(N4CCOCC4)cc3n2)C1` [Example 13, N-{4-[(3S,5R)-3-Amino-5-methylpiperidin-1-yl]pyridin-3-yl}-7-morpholin-4-ylquinoline-2-carboxamide], the IC50 was at most 0.01 µM at Pim-1, at most 0.05 µM in the test on pBAD in KMS.12.BM cells, at most 0.1 µM on Pim-2 and at most 0.01 µM at Pim-3.
Regarding `C[C@H]1CN(c2ccncc2NC(=O)c2ccc3ccc(N4CCN(C)CC4)cc3n2)C[C@@H](N)[C@@H]1O` [Example 18, N-{4-[(3R,4R,5S)-3-Amino-4-hydroxy-5-methylpiperidin-1-yl]pyridin-3-yl}-7-(4-methylpiperazin-1-yl)quinoline-2-carboxamide], the half-maximal inhibitory concentration (IC50) was at most 0.01 µM at Pim-1, 0.05 to 0.25 µM in the test on pBAD in KMS.12.BM cells, 0.1 to 1 µM at Pim-2 and at most 0.01 µM at Pim-3.
For the compound `C[C@@H]1C[C@H](N)CN(c2ccncc2NC(=O)c2ccc3ccc(N4CCC4)cc3n2)C1` [Example 34, N-{4-[(3S,5R)-3-Amino-5-methylpiperidin-1-yl]pyridin-3-yl}-7-azetidin-1-ylquinoline-2-carboxamide], the IC50 on Pim-1 is at most 0.01 µM; with pBAD in KMS.12.BM cells, 0.05 to 0.25 µM; on Pim-2, at most 0.1 µM; at Pim-3 it was at most 0.01 µM.
Consider `C[C@H]1CN(c2ccncc2NC(=O)c2ccc3ccc(-c4cccnc4)cc3n2)C[C@@H](N)[C@@H]1O` [Example 47, N-(4-((3R,4R,5S)-3-Amino-4-hydroxy-5-methylpiperidin-1-yl)pyridin-3-yl)-7-(pyridin-3-yl)quinoline-2-carboxamide], for which the IC50 on Pim-1 was at most 0.01 µM; with pBAD in KMS.12.BM cells, at most 0.05 µM; on Pim-2, at most 0.1 µM; at Pim-3, at most 0.01 µM.
Take `CCc1ccc2ccc(C(=O)Nc3cnccc3N3C[C@@H](N)[C@H](O)[C@@H](C)C3)nc2c1` [Example 9, N-{4-[(3R,4R,5S)-3-Amino-4-hydroxy-5-methylpiperidin-1-yl]pyridin-3-yl}-7-ethylquinoline-2-carboxamide]: the 50% inhibitory concentration (IC50) is at most 0.01 µM on Pim-1, at most 0.05 µM in the test on pBAD in KMS.12.BM cells, 0.1 to 1 µM on Pim-2 and at most 0.01 µM on Pim-3.
Turning to `C[C@@H]1C[C@H](N)CN(c2ccncc2NC(=O)c2ccc3ccc(N4CCN(C)CC4)cc3n2)C1` [Example 19, N-{4-[(3S,5R)-3-Amino-5-methylpiperidin-1-yl]pyridin-3-yl}-7-(4-methylpiperazin-1-yl)quinoline-2-carboxamide], the IC50 is at most 0.01 µM on Pim-1, 0.25 to 2 µM with pBAD in KMS.12.BM cells, 0.1 to 1 µM at Pim-2 and at most 0.01 µM on Pim-3.
With `C[C@H]1CN(c2ccncc2NC(=O)c2ccc3ccc(N4CCC(N5CCOCC5)CC4)cc3n2)C[C@@H](N)[C@@H]1O` [Example 26, N-{4-[(3R,4R,5S)-3-Amino-4-hydroxy-5-methylpiperidin-1-yl]pyridin-3-yl}-7-(4-morpholin-4-ylpiperidin-1-yl)quinoline-2-carboxamide], the IC50 at Pim-1 is at most 0.01 µM; in the test on pBAD in KMS.12.BM cells, 0.05 to 0.25 µM; at Pim-2, at most 0.1 µM; on Pim-3, at most 0.01 µM.
`C[C@@H]1C[C@H](N)CN(c2ccncc2NC(=O)c2ccc3ccc(N4CCC(N5CCOCC5)CC4)cc3n2)C1` [Example 27, N-{4-[(3S,5R)-3-Amino-5-methylpiperidin-1-yl]pyridin-3-yl}-7-(4-morpholin-4-ylpiperidin-1-yl)quinoline-2-carboxamide]: the IC50 is at most 0.01 µM on Pim-1, 0.05 to 0.25 µM in the test with pBAD in KMS.12.BM cells, 0.1 to 1 µM at Pim-2 and at most 0.01 µM on Pim-3.
For the compound `CC(C)c1cnc2ccc(C(=O)Nc3cnccc3N3C[C@@H](N)[C@H](O)[C@@H](C)C3)nc2c1` [Example 6], the IC50 was at most 0.01 µM on Pim-1, at most 0.05 µM in the test with pBAD in KMS.12.BM cells, at most 0.1 µM at Pim-2 and at most 0.01 µM on Pim-3.
Consider `N[C@@H]1CN(c2ccncc2NC(=O)c2ccc3ncc(N4CCC5(CCCO5)CC4)cc3n2)C[C@H](C2CC2)[C@H]1O` [Example 42, N-{4-[(3R,4R,5S)-3-Amino-5-cyclopropyl-4-hydroxypiperidin-1-yl]pyridin-3-yl}-7-(1-oxa-8-azaspiro[4.5]dec-8-yl)-1,5-naphthyridine-2-carboxamide], for which the half-inhibitory concentration (IC50) at Pim-1 was at most 0.01 µM; in the test with pBAD in KMS.12.BM cells, 0.05 to 0.25 µM; at Pim-2, 0.1 to 1 µM; at Pim-3, at most 0.01 µM.
Consider `CCn1cc(-c2cnc3ccc(C(=O)Nc4cnccc4N4C[C@H](C)C[C@H](N)C4)nc3c2)cn1` [Example 5, N-{4-[(3S,5R)-3-Amino-5-methylpiperidin-1-yl]pyridin-3-yl}-7-(1-ethyl-1H-pyrazol-4-yl)-1,5-naphthyridine-2-carboxamide], for which the IC50 at Pim-1 is at most 0.01 µM; with pBAD in KMS.12.BM cells, at most 0.05 µM; at Pim-2 it was 0.1 to 1 µM; on Pim-3, at most 0.01 µM.
As to `C[C@@H]1C[C@H](N)CN(c2ccncc2NC(=O)c2ccc3ccc(N4CCC(C#N)CC4)cc3n2)C1` [Example 17, N-{4-[(3S,5R)-3-Amino-5-methylpiperidin-1-yl]pyridin-3-yl}-7-(4-cyanopiperidin-1-yl)quinoline-2-carboxamide], the IC50 on Pim-1 was at most 0.01 µM; in the test on pBAD in KMS.12.BM cells, 0.05 to 0.25 µM; at Pim-2, 0.1 to 1 µM; at Pim-3, at most 0.01 µM.
As for `COc1ccc(-c2cnc3ccc(C(=O)Nc4cnccc4N4C[C@@H](N)[C@H](O)[C@@H](C)C4)nc3c2)cn1` [Example 7, N-{4-[(3R,4R,5S)-3-Amino-4-hydroxy-5-methylpiperidin-1-yl]pyridin-3-yl}-7-(6-methoxypyridin-3-yl)-1,5-naphthyridine-2-carboxamide], the IC50 at Pim-1 is at most 0.01 µM; with pBAD in KMS.12.BM cells it was at most 0.05 µM; at Pim-2, at most 0.1 µM; on Pim-3, at most 0.01 µM.
For the compound `C[C@H]1CN(c2ccncc2NC(=O)c2ccc3ccc(-c4ccc(OC5CCOCC5)nc4)cc3n2)C[C@@H](N)[C@@H]1O` [Example 52, N-{4-[(3R,4R,5S)-3-Amino-4-hydroxy-5-methylpiperidin-1-yl]pyridin-3-yl}-7-[6-(tetrahydro-2H-pyran-4-yloxy)pyridin-3-yl]quinoline-2-carboxamide], the IC50 at Pim-1 is at most 0.01 µM; with pBAD in KMS.12.BM cells, 0.05 to 0.25 µM; on Pim-2, at most 0.1 µM; on Pim-3 it was at most 0.01 µM.
As for `CCn1cc(-c2cnc3ccc(C(=O)Nc4cnccc4N4C[C@@H](N)[C@H](O)[C@@H](C5CC5)C4)nc3c2)cn1` [Example 38, N-{4-[(3R,4R,5S)-3-Amino-5-cyclopropyl-4-hydroxypiperidin-1-yl]pyridin-3-yl}-7-(1-ethyl-1H-pyrazol-4-yl)-1,5-naphthyridine-2-carboxamide], the concentration for half-maximal inhibition (IC50) is at most 0.01 µM at Pim-1, at most 0.05 µM in the test on pBAD in KMS.12.BM cells, at most 0.1 µM at Pim-2 and at most 0.01 µM on Pim-3.
For `N#CC1CCN(c2cnc3ccc(C(=O)Nc4cnccc4N4C[C@@H](N)[C@H](O)[C@@H](C5CC5)C4)nc3c2)CC1` [Example 41, N-{4-[(3R,4R,5S)-3-Amino-5-cyclopropyl-4-hydroxypiperidin-1-yl]pyridin-3-yl}-7-(4-cyanopiperidin-1-yl)-1,5-naphthyridine-2-carboxamide], the IC50 at Pim-1 lay in the range of 0.01 to 0.05 µM; in the test with pBAD in KMS.12.BM cells, 0.05 to 0.25 µM; at Pim-2, 1 to 10 µM; on Pim-3, 0.01 to 0.05 µM.
